Each structure is given as a SMILES string.

The nature of series [1]: Apparent permeability from apical to basolateral side of dog RRCK cells by transwell assay. The settings on record: MDCK. Format: ADME, cell-based, Canis lupus familiaris, MDCKII-LE.
Another series can be described thus: physchem. As to conditions: octanol/water, pH 7.4.
Series [2] can be described thus: Oral bioavailability in rat. As to conditions: in vivo. It is filed as ADME, organism-based.
Series [3] is described as follows: Drug uptake in wild-type mouse 129/sve cerebrospinal fluid at 100 mg/kg, sc administered as a single dose measured 4 hr post-dose by LC-MS analysis. The settings on record: read-out: Drug uptake. Format: ADME, organism-based. Also noted: dose 100 mg/kg, route subcutaneous.
Series [4] in a line: Oral bioavailability in mouse. As to conditions: in vivo. Format: ADME, organism-based.
Series [5] can be described thus: Drug uptake in wild-type mouse 129/sve cerebrospinal fluid at 100 mg/kg, sc administered as a single dose measured 1 hr post-dose by LC-MS analysis. Format: ADME, organism-based. Also noted: dose 100 mg/kg, route subcutaneous. The settings on record: read-out: Drug uptake.

`NC(=O)[C@@H](CCC(F)(F)F)N(CC1CCCCC1)S(=O)(=O)c1ccc(Cl)cc1`: the Papp A→B (usually the apparent permeability from the apical to the basolateral side of a cell layer) in series [1] was 4.42 ×10⁻⁶ cm/s.
In the case of `NC(=O)[C@@H](CCC(F)(F)F)N(CC1CCCC1)S(=O)(=O)c1ccc(Cl)cc1`, in series [1], the Papp A→B stood at 6.01 ×10⁻⁶ cm/s. The logD (in general, lipophilicity at a set pH, counting ionised and neutral species) in the series “physchem” was determined as 5.15.
Regarding `NC(=O)[C@@H](CCC(F)(F)F)N(CC1CCC1)S(=O)(=O)c1ccc(Cl)cc1`, the apical-to-basolateral permeability (Papp A→B) in series [1] was 11.1 ×10⁻⁶ cm/s.
Turning to `NC(=O)[C@@H](CCC(F)(F)F)N(C[C@H]1CCCCO1)S(=O)(=O)c1ccc(Cl)cc1`, in series [1], the Papp A→B worked out at 13.4 ×10⁻⁶ cm/s. This molecule also returned a logD in “physchem” of 4.3.
Take `NC(=O)[C@@H](CCC(F)(F)F)N(C[C@@H]1CCCCO1)S(=O)(=O)c1ccc(Cl)cc1`: the apparent permeability from apical to basolateral (Papp A→B) in series [1] came to 15.4 ×10⁻⁶ cm/s. Besides, in “physchem”, the logD was found to be 4.3.
With `NC(=O)[C@@H](CCC(F)(F)F)N(C[C@H]1CCCOC1)S(=O)(=O)c1ccc(Cl)cc1`, the Papp A→B in series [1] is 18.2 ×10⁻⁶ cm/s. Also, the log distribution coefficient (logD) in the series “physchem” was found to be 3.6.
For `NC(=O)[C@@H](CCC(F)(F)F)N(C[C@@H]1CCCOC1)S(=O)(=O)c1ccc(Cl)cc1`, in series [1], the Papp A→B worked out at 18.4 ×10⁻⁶ cm/s. In the series “physchem”, this molecule yielded a pH-dependent lipophilicity (logD) of 3.7.
Take `NC(=O)[C@@H](CCC(F)(F)F)N(CC1CCOCC1)S(=O)(=O)c1ccc(Cl)cc1`: in series [1], the apparent permeability from apical to basolateral (Papp A→B) stood at 26.3 ×10⁻⁶ cm/s. This molecule also showed a log distribution coefficient (logD) in “physchem” of 3.5.
Regarding `NC(=O)[C@@H](CCC(F)(F)F)N(C[C@@H]1COCCO1)S(=O)(=O)c1ccc(Cl)cc1`, the Papp A→B in series [1] was 27.3 ×10⁻⁶ cm/s. In addition, the logD in the series “physchem” stood at 2.75.
Regarding `NC(=O)[C@@H](CCC(F)(F)F)N(C[C@H]1COCCO1)S(=O)(=O)c1ccc(Cl)cc1`, in series [1], the Papp A→B is 20.6 ×10⁻⁶ cm/s. Moreover, the log distribution coefficient (logD) in the series “physchem” was found to be 2.75.
On to `NC(=O)[C@@H](CCC(F)(F)F)N(C[C@H]1CCCO1)S(=O)(=O)c1ccc(Cl)cc1`, for which the Papp A→B in series [1] came out at 19.1 ×10⁻⁶ cm/s. Moreover, the logD in “physchem” came to 3.6.
On to `NC(=O)[C@@H](CCC(F)(F)F)N(C[C@@H]1CCCO1)S(=O)(=O)c1ccc(Cl)cc1`, for which the Papp A→B in series [1] amounted to 22.4 ×10⁻⁶ cm/s. For the same molecule, in the series “physchem”, the logD was 3.5.
Take `NC(=O)[C@@H](CCC(F)(F)F)N(C[C@H]1CCOC1)S(=O)(=O)c1ccc(Cl)cc1`: in series [1], the Papp A→B is 21.7 ×10⁻⁶ cm/s. For the same molecule, the logD in “physchem” was determined as 2.8.
`NC(=O)[C@@H](CCC(F)(F)F)N(C[C@@H]1CCOC1)S(=O)(=O)c1ccc(Cl)cc1`: the apical-to-basolateral permeability (Papp A→B) in series [1] worked out at 20.5 ×10⁻⁶ cm/s. In “physchem”, this molecule yielded a logD of 2.8.
Turning to `NC(=O)[C@@H](CCC(F)(F)F)N(C[C@@H]1CCO1)S(=O)(=O)c1ccc(Cl)cc1`, the Papp A→B in series [1] stood at 34.9 ×10⁻⁶ cm/s. This molecule also came in with a logD in “physchem” of 2.6. In addition, the bioavailability in series [2] and in series [4] was less than 5% throughout. Also, the concentration at 4 h in series [3] amounted to 59.6 nM. The concentration at 1 h in series [5] amounted to 447 nM.
For the molecule `NC(=O)[C@@H](CCC(F)(F)F)N(C[C@H]1CCO1)S(=O)(=O)c1ccc(Cl)cc1`, the Papp A→B in series [1] turned out to be 28.7 ×10⁻⁶ cm/s. Moreover, the logD in the series “physchem” is 2.6.
Take `NC(=O)[C@@H](CCC(F)(F)F)N(CC1COC1)S(=O)(=O)c1ccc(Cl)cc1`: the Papp A→B in series [1] was 25.4 ×10⁻⁶ cm/s. Moreover, the logD in “physchem” was determined as 2.5. Further, the bioavailability in series [2] and in series [4] was less than 5% each time.
On to `C[C@H]1C[C@@H](CN([C@H](CCC(F)(F)F)C(N)=O)S(=O)(=O)c2ccc(Cl)cc2)O1`, for which, in series [1], the Papp A→B stood at 21.8 ×10⁻⁶ cm/s.
Still for that read-out and setting: with `C[C@@H]1C[C@@H](CN([C@H](CCC(F)(F)F)C(N)=O)S(=O)(=O)c2ccc(Cl)cc2)O1` the figure was 21.2 ×10⁻⁶ cm/s.
For the molecule `CC1(C)C[C@H](CN([C@H](CCC(F)(F)F)C(N)=O)S(=O)(=O)c2ccc(Cl)cc2)O1`, the Papp A→B in series [1] turned out to be 18.1 ×10⁻⁶ cm/s. Further, the logD in the series “physchem” is 3.8.
For `CC1(C)C[C@@H](CN([C@H](CCC(F)(F)F)C(N)=O)S(=O)(=O)c2ccc(Cl)cc2)O1`, in series [1], the Papp A→B is 14.9 ×10⁻⁶ cm/s. In the series “physchem”, this molecule gave a logD of 3.8. The bioavailability in series [2] and in series [4] was less than 5% throughout.
Take `CC1(C)CO[C@@H]1CN([C@H](CCC(F)(F)F)C(N)=O)S(=O)(=O)c1ccc(Cl)cc1`: the Papp A→B in series [1] amounted to 22.3 ×10⁻⁶ cm/s. Also, the logD in “physchem” was 3.9.
Regarding `CC1(C)CO[C@H]1CN([C@H](CCC(F)(F)F)C(N)=O)S(=O)(=O)c1ccc(Cl)cc1`, the Papp A→B in series [1] amounted to 26.4 ×10⁻⁶ cm/s. The molecule also displayed a logD in the series “physchem” of 3.8.
